{
  "source": "patent US20240374763A1",
  "about": "“DIAGNOSIS AND MONITORING USING EXTRADOMAIN-B FIBRONECTIN TARGETED PROBES” (Case Western Reserve University, priority 2020, published 2024)",
  "type_in_all_cases": "in vivo, mice",
  "key": {"[1]": {"system": "PANC-1-GFP-Luc intrapancreatic tumor xenografts", "assay": "MRMI of PANC-1-GFP-Luc intrapancreatic tumor xenografts", "protocol": "(§1) For flank xenograft models, 4×10^6 Capan-1 cells suspended in 100 μL of a 6 mg/mL Matrigel (Corning, Corning, NY) solution was injected subcutaneously into the flank of eight-week-old female nu/nu mice. The tumor bearing mice were imaged after tumor volumes exceeded 300 mm^3. For orthotopic intrapancreatic models, the pancreas of four-week-old female nu/nu mice were surgically exposed and 1×10^6 BxPC3-GFP-Luc or PANC-1-GFP-Luc cells suspended in 100 μL of an Matrigel solution (6 mg/mL) was injected into the pancreatic tissue. Prior to imaging, growth of tumor was verified by bioluminescence imaging with intraperitoneal injection of d-luciferin on IVIS Spectrum system (Perkin Elmer, Waltham, MA).\nMice bearing intrapancreatic tumors were anesthetized and a tail vein catheter was inserted. Image acquisition was performed on a MR Solutions 3T MRS 3000 scanner with a mouse radiofrequency coil. Axial images were obtained using a Fast Spin Echo (FSE) MRI sequence (305 ms TR, 11 ms TE, 90° F.A, 4 cm×4 cm FOV, 1 mm slice thickness, 10 slices, echo train length=4, echo spacing=11 ms, 4 averages, 256×256 matrix, […] cm/pixel resolution) with respiratory gating. Images were acquired before contrast and at different time points after contrast injection at a dose of 0.1 mmol/kg (100 μL). For competitive binding experiments, a 5:1 molar ratio of free ZD2 peptide to MT218 was injected in mice bearing intrapancreatic BxPC3 tumor xenografts (n=3) at a dose of 0.1 mmol MT218/kg (100 μL). Images obtained on the MR Solutions 3T scanner were normalized using the Surscalereader.exe (MR Solutions, Guildford, UK) program supplied.\nImage files were exported and analyzed in Horus software. ROIs were drawn in the tumor, liver, kidney, and muscle. […] The contrast-to-noise ratio of the tumor (CNR) was calculated using the following equation, where σ_noise is the standard deviation of intensities from an ROI drawn outside of the mouse body: […]"}, "[2]": {"system": "CAL27 tumors", "assay": "MRMI of OSCC flank xenografts, CAL27", "conditions": "MT218 0.04 mmol/kg", "protocol": "Animal experiments were performed under an animal protocol approved by the Institutional Animal Care and Use Committee (IACUC) at Case Western Reserve University (CWRU, Cleveland, OH, USA). Female 4-week-old athymic nude mice purchased from the Jackson Laboratory (Bar Harbor, ME, USA) were housed in the Animal Core Facility at CWRU. Anesthetized mice were subcutaneously inoculated in the right flank with 4×10^6 GFP/luciferase-expressing OSCC cells (n=5 per cell line) in 100 μL of a 1:1 mixture of Matrigel HC (Corning) and DPBS. Tumor size was monitored with caliper measurements. After 4 weeks of growth, tumors were sufficiently large for MRI experiments.\nMRI experiments were performed with a 3T MRS-3000 system (MR Solutions, Surrey, UK). Tumor-bearing mice were imaged before and at 10, 20, and 30 minutes post-injection of the targeted contrast agent, MT218 (Molecular Theranostics, LLC, Cleveland, OH, USA), at a dose of 0.04 mmol/kg using a T1-weighted fast spin-echo axial sequence with respiratory gating (TR=305 ms, TE=11 ms, FOV=40×40 mm, slice thickness=1 mm, number of slices=15, Nav=2, matrix=256×248). […]\nImages were exported in DICOM format and analyzed using FIJI. Contrast-to-noise ratio (CNR) for each time point was calculated as the difference between the mean tumor intensity and the mean muscle intensity, divided by the standard deviation of noise."}, "[3]": {"system": "Hs578T tumors", "assay": "MRMI-mediated monitoring of therapeutic response, Hs578T tumors", "conditions": "pretreatment Hs578T tumors, MT218 0.1 mmol/kg, first 30 min", "protocol": "The targeted MRI contrast agent ZD2-N3-Gd(HP-DO3A) (MT218) was provided by Molecular Theranostics (Cleveland, OH) and was synthesized. MR images of the mice bearing MDA-MB-231 or Hs578T tumors were acquired on a 3T MRS 3000 scanner (MRS Solutions, Surrey, UK) with a mouse short quad coil. T1-weighted images were acquired following intravenous injection of MT218 at dose of 0.1 mmol/kg using a fast spin echo (FSE) axial sequence with respiratory gating (TR=305 ms, TE=11 ms, FA=90°, FOV=40×40 mm, slice thickness=1 mm, slice number=15, Nav=2, matrix=256×256). Images were acquired before and at 10, 20, and 30 min after injection of MT218. MRMI was performed before the treatment and then at week 6 post-nanoparticle treatments for MDA-MB-231 and Hs578T tumors. MRI data and image processing was conducted using FIJI (FIJI is just ImageJ) software. The contrast-to-noise ratios (CNRs) of tumors were calculated as the difference of the mean tumor intensity and the mean muscle intensity divided by the standard deviation of the noise."}, "[4]": {"system": "LNCaP-CXCR2 tumors", "assay": "MRMI with MT218, LNCaP-CXCR2 xenografts", "conditions": "0.04 mmol Gd/kg, 20 min post-injection", "source_text": "Xenograft models were established by subcutaneous flank injections in athymic nu/nu mice for the 4 prostate cancer cells and tested with MRMI using 0.04 mmol Gd/kg of MT218."}, "[5]": {"system": "Capan-1 flank tumor xenografts", "assay": "MRMI of Capan-1 flank tumor xenografts", "protocol": "as §1\nFlank tumor-bearing mice were anesthetized and a tail vein catheter inserted. MR image acquisition was performed on a 7T Biospin (Bruker, Billerica, MA) preclinical small animal scanner with a volume radiofrequency coil. Axial images were obtained using a multi-spin multi-echo (MSME) MRI sequence (500 ms TR, 8.1 ms TE, 900 FA, 4.50 cm×4.50 cm FOV, 1.50 mm slice thickness, 16 slices, 2 averages, 200×200 matrix, 0.0225×0.0225 cm/pixel resolution). Contrast agents were injected at a dose of 0.1 mmol/kg (100 μL) via the tail vein catheter, followed by a saline flush. Images of the tumors were acquired before contrast and at various time points after contrast administration. Gd(HP-DO3A) was used as a control.\nImage files were exported and analyzed in Horus software. ROIs were drawn in the tumor, liver, kidney, and muscle. Muscle ROIs were taken from muscle, with other structures (liver, kidney, tumor) identified after comparison with published images and comparison with anatomical landmarks or bioluminescent imaging. Size of ROIs drawn for image analysis are summarized in Supplemental Table S1. The contrast-to-noise ratio of the tumor (CNR) was calculated using the following equation, where σ_noise is the standard deviation of intensities from an ROI drawn outside of the mouse body: […]"}},
  "note": "No end group written: not given here.",
  "data": [
    {"substance": "ZD2-N3-Gd(HP-DO3A) (TVRTSAD; also: conjugated to Gd(HP-DO3A) by click reaction of alkynyl-ZD2 with N3-Gd(HP-DO3A), residue of attachment not given here, Gd complex) [MT218, EDB-FN-targeted MRI contrast agent; ZD2 peptide conjugated to the clinical macrocyclic agent Gd(HP-DO3A)]", "values": [
      {"measurement": "intratumoral CNR increase", "setting": "[1]; 0.1 mmol/kg, 10 min postinjection", "result": "approximately 3.85 fold"},
      {"measurement": "CNR compared to the clinical agent Gd(HP-DO3A)", "setting": "[1]; PANC-1-GFP-Luc intrapancreatic", "result": "164 % CNR of control"},
      {"measurement": "average maximum enhancement (CNR)", "setting": "[2]", "result": "1.80±0.17"},
      {"measurement": "signal enhancement vs pre-contrast", "setting": "[3]", "result": "Strong signal enhancement"},
      {"measurement": "increase of CNR", "setting": "[4]", "result": "~3", "unit": "fold"},
      {"measurement": "increase of contrast to noise ratio (CNR)", "setting": "[5]; 0.1 mmol/kg, MT218 at 15 minutes post-injection, maintained at least 35 minutes, Gd(HP-DO3A) for the duration of the experiment", "result": 4.84, "unit": "fold"},
      {"measurement": "CNR compared to the clinical agent Gd(HP-DO3A)", "setting": "[5]; Capan-1 flank", "result": "273 % CNR of control"}
    ]}
  ]
}
